From ChEMBL document CHEMBL1125508
Positions count from the first letter of the chain named.

Tests used:
[1] = test system: T1, Dihydrofolate reductase (Escherichia coli), P0ABQ4 [T46A]
T1 sequence (whole entry): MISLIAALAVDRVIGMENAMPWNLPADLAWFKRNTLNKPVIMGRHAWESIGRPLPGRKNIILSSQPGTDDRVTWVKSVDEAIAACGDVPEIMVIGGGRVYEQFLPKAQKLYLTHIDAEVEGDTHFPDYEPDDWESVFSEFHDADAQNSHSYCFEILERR

[2] = test system: T2, Dihydrofolate reductase (Escherichia coli), P0ABQ4 [T46N]
T2 sequence (whole entry): T1 sequence (whole entry) with A46N

[3] = target: T3, Dihydrofolate reductase (Escherichia coli) (UniProt P0ABQ4)
T3 sequence (whole entry): T1 sequence (whole entry) with A46T
Description: Dissociation rate constant of compound for wild type Escherichia coli dihydrofolate reductase

[4] = test system: T4, Dihydrofolate reductase (Escherichia coli), P0ABQ4 [T46S]
T4 sequence (whole entry): T1 sequence (whole entry) with A46S

[5] = target: T3, Dihydrofolate reductase (Escherichia coli); remark: listed apart in the source
Description: Rate of hydride transfer (E-N) of compound for wild type Escherichia coli dihydrofolate reductase

| Rate of hydride transfer [5] [s⁻¹] | Compound | k off [1] [s⁻¹] | k off [2] [s⁻¹] | k off [3] [s⁻¹] | k off [4] [s⁻¹] |
| --- | --- | --- | --- | --- | --- |
|  | NC(=O)c1ccc[n+]([C@@H]2O[C@H](COP(=O)([O-])OP(=O)(O)OC[C@H]3O[C@@H](n4cnc5c(N)ncnc54)[C@H](OP(=O)(O)O)[C@@H]3O)[C@@H](O)[C@H]2O)c1 | 28 | 56 | 3.5 | 60 |
|  | Nc1nc(=O)c2c([nH]1)NCC(CNc1ccc(C(=O)N[C@@H](CCC(=O)O)C(=O)O)cc1)=N2 |  |  | 22 |  |
| 950 | Nc1nc(O)c2c(n1)NCC(CNc1ccc(C(=O)N[C@@H](CCC(=O)O)C(=O)O)cc1)N2 (stereo not given in full) |  |  |  |  |
|  | NC(=O)c1ccc[n+]([C@H]2O[C@@H](COP(=O)([O-])OP(=O)(O)OC[C@H]3O[C@@H](n4cnc5c(N)ncnc54)[C@H](OP(=O)(O)O)[C@@H]3O)[C@H](O)[C@@H]2O)c1 | 274 | 253 | 200 | 230 |
